In patent publication US20130029981A1, “COMPOUNDS, COMPOSITIONS, AND METHODS FOR CONTROLLING BIOFILMS” (Katholieke Universiteit Leuven, priority 2009, published 2013):
Read-outs that look alike come from different tables or passages of the source.

How the values were obtained:
[1] = tested on: Pseudomonas aeruginosa PA14; assay: Static peg assay for prevention of biofilm formation (Calgary device, crystal violet); type: cell-based
Method: (§1) Evaluation of the biofilm inhibitory activity of some substituted 2-amino-1H-imidazoles of the invention was carried out by growing up biofilms of S. Typhimurium ATCC14028 or SL1344 or Pseudomonas aeruginosa PA14 in the presence of different concentrations (1/2 dilution series) of biofilm inhibitors, by using the Calgary biofilm device. After an incubation period of 24 hours at 25° C. or 37° C. or 48 hours at 16° C. the biofilms were visualized by crystal violet staining. In the next step the stain was extracted from the biofilm with 30% acetic acid. The absorbance of the resolubilized stain at 570 nm is a measure of the amount of biofilm formed.
The device used for Pseudomonas aeruginosa biofilm formation is the same platform carrying polystyrene pegs as described above for Salmonella Typhimurium.
Two-fold serial dilutions of the compounds in 100 μl liquid broth per well were prepared in the microtiter plate. Subsequently, an overnight culture of P. aeruginosa PA14 (grown up in TSB medium) was diluted 1:100 into liquid broth and 100 μl was added to each well of the microtiter plates, resulting in a total amount of 200 μl medium per well. The pegged lid was placed on the microtiter plate and the plate was incubated for 24 hours at 25° C., 30° C. or 37° C. without shaking. During this incubation period biofilms were formed on the surface of the pegs. The liquid broth used for the tests at 25° C. was TSB 1/20. The tests at 37° C. were performed in CFA and/or LBNS broth. During incubation at 30° C. and 37° C. the plates were placed in a humidity controlled container to prevent evaporation of the growth medium. Quantification of biofilm formation was performed similarly as described previously for the S. Typhimurium biofilm assays.
as §1, with “imidazo[1,2-a]pyrimidinium bromide salts” for “2-amino-1H-imidazoles”
as §1, with “substituted imidazo[1,2-a]-pyrimidinium bromide and perchlorate salts produced according to examples 3 and 5” for “substituted 2-amino-1H-imidazoles of the invention”, “C.” for “C. or 37° C. or 48 hours at 16° C.”, “nm was taken as” for “nm is”

S. Typhimurium ATCC14028 = assay: as above; type: cell-based, Salmonella Typhimurium
How it was run: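 Calgary 96-peg device, ca. 10^6 cells of ATCC14028 per well in TSB 1/20 for 24 h at 25° C (or 48 h at 16° C, medium and compound renewed at 24 h), or in CFA broth for 24 h at 37° C, static, with two-fold compound dilutions. Crystal violet stain, acetic acid extraction, OD570. IC50 from 2–3 independent experiments.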

[2] = P. aeruginosa PA14, 25° C., read-out: P. aeruginosa IC50 (biofilm formation)
[3] = S. Typhimurium ATCC 14028, 25° C., read-out: S. Typhimurium IC50 (biofilm formation)
[4] = 25° C., 24 hours, Table 15, read-out: (2) IC50 (biofilm inhibition)
[5] = 25° C., Table 16, read-out: P. aeruginosa IC50 (biofilm formation)
[6] = 25° C., 24 hours, Table 15, read-out: (1) IC50 (biofilm inhibition)
[7] = 25° C., Table 16, read-out: S. Typhimurium IC50 (biofilm formation)
[8] = 25° C., Table 18, read-out: P. aeruginosa IC50 (biofilm formation)
[9] = 25° C., Table 18, read-out: S. Typhimurium IC50 (biofilm formation)
[10] = 25° C., Table 22, read-out: P. aeruginosa IC50 (biofilm formation)
[11] = 25° C., Table 22, read-out: S. Typhimurium IC50 (biofilm formation)

`CCNc1ncc(-c2ccc([N+](=O)[O-])cc2)[nH]1` [Compound 92] gave an IC50 [1, 2] of 104 µM and an IC50 (S. Typhimurium ATCC14028; [3]) of 171 µM.
For `COc1ccc(-c2cnc(NC3CCCCC3)[nH]2)cc1` [Compound 125], the IC50 ([1]; Table 21, P. aeruginosa PA14, 25° C., read-out: P. aeruginosa IC50 (biofilm formation)) was 54.8 µM and the IC50 (S. Typhimurium ATCC14028; Table 21, S. Typhimurium ATCC14028, 25° C., read-out: S. Typhimurium IC50 (biofilm formation)) was ~378 µM.
For `CCCCCCCCN1c2nccc[n+]2CC1(O)c1ccc(Cl)cc1` (racemic) [Compound 21], the IC50 [1, 4] was 11.7 µM, the IC50 [1, 5] was 21.7 µM and the IC50 (S. Typhimurium ATCC14028; [6]) was 6.98 µM. For the same compound, the IC50 (S. Typhimurium ATCC14028; [7]) was 7 µM.
For `OC1(c2ccc(Cl)cc2)C[n+]2cccnc2N1C1CCCCCCCCCCC1` (stereo not shown) [Compound 67], the IC50 [1, 8] was 6.8 µM and the IC50 (S. Typhimurium ATCC14028; [9]) was 5.6 µM.
Compound `OC1(c2ccc(Cl)cc2)C[n+]2cccnc2N1C1CCCC1` (stereo not shown) [Compound 63] has an IC50 [1, 8] of 163 µM and an IC50 (S. Typhimurium ATCC14028; [9]) of 41.8 µM.
With `CCCCNc1ncc(-c2ccc([N+](=O)[O-])cc2)[nH]1` [Compound 93] the IC50 [1, 2] was > 800 µM and the IC50 (S. Typhimurium ATCC14028; [3]) was 702 µM.
With `CC(C)CNc1ncc(-c2ccc(Br)cc2)[nH]1` [Compound 103] the IC50 [1, 2] was 1.2 µM and the IC50 (S. Typhimurium ATCC14028; [3]) was 2.9 µM.
`CCCCCCCC[n+]1c(-c2ccc(S(C)(=O)=O)cc2)cn2cccnc21.[O-][Cl+3]([O-])([O-])[O-]` [1-octyl-2-(4-methylsulfonylphenyl)-imidazo[1,2-a]pyrimidin-1-ium perchlorate] gave an IC50 ([1]; Pseudomonas aeruginosa, PA14, 24 h, read-out: (2) IC50 (biofilm inhibition)) of 49.6 µM and an IC50 (S. Typhimurium ATCC14028; Salmonella enterica, 24 h, read-out: (1) IC50 (biofilm inhibition)) of 82 µM.
With `CS(=O)(=O)c1ccc(-c2cnc(N)[nH]2)cc1` [Compound 115] the IC50 [1, 2] was > 800 µM and the IC50 (S. Typhimurium ATCC14028; [3]) was > 800 µM.
With `CCCCCCNc1ncc(-c2ccc(F)cc2)[nH]1` [Compound 99] the IC50 [1, 2] was ~12.5 µM and the IC50 (S. Typhimurium ATCC14028; [3]) was > 400 µM.
For `COc1ccc(CNc2ncc(-c3ccc([N+](=O)[O-])cc3)[nH]2)cc1` [Compound 128], the IC50 [1, 10] was > 800 µM and the IC50 (S. Typhimurium ATCC14028; [11]) was > 800 µM.
In the case of `COc1cccc(CCNc2ncc(-c3ccc(Cl)c(Cl)c3)[nH]2)c1` [Compound 130], the IC50 [1, 10] is reported as > 800 µM and the IC50 (S. Typhimurium ATCC14028; [11]) is reported as > 800 µM.
`CC(C)CN1c2nccc[n+]2CC1(O)c1ccc(Cl)cc1` (racemic) [Compound 17] gave an IC50 [1, 5] of 83.4 µM and an IC50 (S. Typhimurium ATCC14028; [7]) of 31.4 µM.
`OC1(c2ccc(Cl)cc2)C[n+]2cccnc2N1C1CCC1` (stereo not shown) [Compound 62] was tested, and the IC50 [1, 8] was 372 µM and the IC50 (S. Typhimurium ATCC14028; [9]) was 121 µM.
In the case of `CCCCCCCCN1c2nccc[n+]2CC1(O)c1ccc(OC)cc1` (stereo not shown) [Compound 46], the IC50 [1, 4] is reported as 13.6 µM, the IC50 [1, 5] is reported as 90.2 µM and the IC50 (S. Typhimurium ATCC14028; [6]) is reported as 10.5 µM. For the same compound, the IC50 (S. Typhimurium ATCC14028; [7]) was 10.5 µM.
`CCCCCCCCN1c2nccc[n+]2CC1(O)c1cccc(Br)c1` (stereo not shown) [Compound 56] showed an IC50 [1, 4] of ~13.2 µM, an IC50 ([1]; 25° C., Table 17, read-out: P. aeruginosa IC50 (biofilm formation)) of 29 µM and an IC50 (S. Typhimurium ATCC14028; [6]) of 7.13 µM. The IC50 (S. Typhimurium ATCC14028; 25° C., Table 17, read-out: S. Typhimurium IC50 (biofilm formation)) was 7.1 µM.
For `OC1(c2ccccc2)C[n+]2cccnc2N1C1CCCCC1` (stereo not shown) [Compound 58], the IC50 [1, 8] was 87 µM and the IC50 (S. Typhimurium ATCC14028; [9]) was 139 µM.
